Assay results taken from patent publication US5192781A, “Thiazole derivatives which are angiotensin II receptor antagonists, their methods of preparation and pharmaceutical compositions in which they are present” (Laboratoires UPSA, priority 1991, dated 1993).

Test system: rat adrenal angiotensin II receptors
Assay: displacement of radioligand [^125 I]-SIAII specifically bound to rat adrenal angiotensin II receptors
Type: binding
Conditions: 60 min at 25° C.
Protocol: The affinity of the products of the Examples for angiotensin II receptors is evaluated by the technique of displacing a radioligand specifically bound to rat adrenal angiotensin II receptors.
An aliquot of a rat adrenal gland homogenate incubates in the presence of a single concentration of [^125 I]-SIAII (Sar^1,Tyr^4,Ile^8 -angiotensin II), which is an angiotensin II receptor antagonist, and two concentrations of competing agents (10^-5 M, 10^-7 M) for 60 min at 25° C.
The reaction is completed by the addition of a buffer, followed by rapid filtration through glasspaper filters. The non-specific binding is determined in the presence of angiotensin II.
The results are expressed, for the concentrations tested, as the percentage displacement of the radioligand specifically bound to the adrenal angiotensin II receptors.

% displacement of the labeled ligand (1E-5M competing agent, 10 µM) [%] | % displacement of the labeled ligand (1E-7M competing agent, 0.1 µM) [%] | Structure (SMILES)
58 | 0 | Cc1nc(C)c(Cc2ccc(NC(=O)c3ccccc3C(=O)O)cc2)s1 [Example 4, 2-[4-((2,4-Dimethylthiazol-5-yl)methyl)phenylaminocarbonyl]benzoic acid]
35 | 0 | CCOC(=O)CNc1nc(C)c(Cc2ccc(NC(=O)c3ccccc3C(=O)O)cc2)s1 [Example 7, Ethyl (4-methyl-5-(4-(2-carboxybenzoylamino)benzyl)thiazol-2-yl)aminoacetate]
94 | 59 | CCCc1nc(C)sc1Cc1ccc(NC(=O)c2ccccc2S(=O)(=O)O)cc1 [Example 11, 2-[4-(2-methyl-4-propylthiazol-5-ylmethyl)phenylaminocarbonyl]benzosulfonic acid]
79 | 0 | CCCc1nc(SCCCC(=O)OCC)sc1Cc1ccc(NC(=O)c2ccccc2S(=O)(=O)O)cc1 [Example 15, Ethyl 4-[[4-propyl-5-(4-(2-sulfobenzoylamino)benzyl)thiazol-2-yl]mercapto]butyrate]
89 | 55 | CCCc1nc(COC)sc1Cc1ccc(NC(=O)c2ccccc2S(=O)(=O)O)cc1 [Example 19, 2-[4-(2-Methoxymethyl-4-propylthiazol-5-yl-methyl)phenylaminocarbonyl]benzosulfonic acid]
89 | 5 | CCCc1nc(NCC(=O)OC)sc1Cc1ccc(NC(=O)c2ccccc2S(=O)(=O)O)cc1 [Example 22, Methyl (4-propyl-5-(4-(2-sulfobenzoylamino)benzyl)thiazol-2-yl)aminoacetate]
86 | 22 | CCCc1nc(CC(=O)OC)sc1Cc1ccc(NC(=O)c2ccccc2S(=O)(=O)O)cc1 [Example 26, 2-[4-(2-methoxycarbonylmethyl-4-propylthiazol-5-ylmethyl)phenylaminocarbonyl]benzosulfonic acid]
84 | 29 | CCCc1nc(CNC(=O)OCC)sc1Cc1ccc(NC(=O)c2ccccc2S(=O)(=O)O)cc1 [Example 30, 2-[4-(2-Ethoxycarbonylaminomethyl-4-propylthiazol-5-ylmethyl)phenylaminocarbonyl]benzosulfonic acid]
85 | 27 | CCCc1nc(N)sc1Cc1ccc(NC(=O)c2ccccc2S(=O)(=O)O)cc1 [Example 33, 2-[4-(2-Amino-4-propylthiazol-5-ylmethyl)phenylaminocarbonyl]benzosulfonic acid]
84 | 3 | CCCc1nc(NC(C)=O)sc1Cc1ccc(NC(=O)c2ccccc2S(=O)(=O)O)cc1 [Example 36, 2-[4-(2-Acetamido-4-propylthiazol-5-yl-methyl)phenylaminocarbonyl]benzosulfonic acid]
88 | 59 | CCCCCc1nc(C)sc1Cc1ccc(NC(=O)c2ccccc2S(=O)(=O)O)cc1 [Example 40, 2-[4-(2-methyl-4-pentylthiazol-5-ylmethyl)phenylaminocarbonyl]benzosulfonic acid]
87 | 9 | CCCc1nc(N)sc1Cc1ccc(NC(=O)c2c(Cl)ccc(Cl)c2C(=O)O)cc1 [Example 41, 2-[4-(2-Amino-4-propylthiazol-5-ylmethyl)phenylaminocarbonyl]-3,6-dichlorobenzoic acid]
91 | 44 | CCCCCc1nc(N)sc1Cc1ccc(NC(=O)c2ccccc2S(=O)(=O)O)cc1 [Example 44, 2-[4-(2-Amino-4-pentylthiazol-5-ylmethyl)phenylaminocarbonyl]benzosulfonic acid]
